The target of this experiment is T1, LXRβ (Homo sapiens, UniProt P55055).
T1 construct: Co-transfection expression plasmids, comprising full-length LXRα (pCMX-h LXRα[…] or LXRβ (pCMX-hLXRβ)); expressed in transfected cells; host or cells: CV-1 African Green Monkey Kidney Cells
T1 sequence (P55055 1-460): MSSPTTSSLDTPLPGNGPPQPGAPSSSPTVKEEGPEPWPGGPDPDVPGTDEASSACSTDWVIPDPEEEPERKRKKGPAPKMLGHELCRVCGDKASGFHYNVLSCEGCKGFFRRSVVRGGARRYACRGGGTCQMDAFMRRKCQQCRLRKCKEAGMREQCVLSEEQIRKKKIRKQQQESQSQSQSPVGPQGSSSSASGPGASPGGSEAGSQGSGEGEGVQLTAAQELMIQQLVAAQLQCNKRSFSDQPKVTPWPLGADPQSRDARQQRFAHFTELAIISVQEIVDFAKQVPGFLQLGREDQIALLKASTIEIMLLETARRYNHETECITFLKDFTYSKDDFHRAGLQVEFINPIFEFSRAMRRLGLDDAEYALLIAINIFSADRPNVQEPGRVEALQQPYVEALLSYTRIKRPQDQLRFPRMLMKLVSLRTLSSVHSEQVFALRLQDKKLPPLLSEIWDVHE
T1 sequence (P19793 1-462 partner): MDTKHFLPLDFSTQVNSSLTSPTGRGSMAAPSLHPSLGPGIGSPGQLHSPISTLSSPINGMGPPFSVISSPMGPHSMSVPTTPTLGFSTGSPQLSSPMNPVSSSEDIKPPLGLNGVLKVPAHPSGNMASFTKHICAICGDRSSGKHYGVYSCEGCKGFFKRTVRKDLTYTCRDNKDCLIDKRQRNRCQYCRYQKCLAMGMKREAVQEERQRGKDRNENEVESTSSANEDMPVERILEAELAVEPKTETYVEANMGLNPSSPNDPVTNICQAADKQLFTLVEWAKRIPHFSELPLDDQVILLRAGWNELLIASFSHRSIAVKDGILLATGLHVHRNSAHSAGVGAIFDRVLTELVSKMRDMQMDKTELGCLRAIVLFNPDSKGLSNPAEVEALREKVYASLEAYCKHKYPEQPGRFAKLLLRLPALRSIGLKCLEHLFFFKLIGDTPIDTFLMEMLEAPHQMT
As to the kind of experiment: Co-transfection assay (LXRE luciferase reporter), LXRβ. The conditions noted are these: for EC50: CV-1 cells transfected with pCMX-hLXRβ and LXREx1-Tk-Luciferase, 20 hours incubation; for Emax: LXRβ co-transfection, relative to high control 1-(2,4-difluorobenzyl)-2-oxo-6-(4-phenoxyphenyl)-4-(trifluoromethyl)-1,2-dihydropyridine-3-carbonitrile, read-out: % Efficacy. Format: cell-based. The method in brief: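 Cell-based LXRβ agonism measured as LXRE-luciferase induction in transiently transfected CV-1 cells after 20 h treatment. Potency is the curve-fit EC50; efficacy is expressed as percent of a full-agonist control's maximal response.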
For orientation: In a reporter assay the amount or activity of a reporter protein is the signal.

The text below walks through data of US9834542B2, “LXR modulators” (BRISTOL-MYERS SQUIBB COMPANY, priority 2013, dated 2017).

The EC50 is the concentration that produces a half-maximal response. A high value points to a less potent agent. As to `Cc1nc(-c2cc(-c3cc(F)c(CO)c(S(C)(=O)=O)c3)ccc2-n2cc(C(F)(F)F)nc2C)c(-c2ccc(OC(F)(F)C(F)F)cc2)o1` [Example 544, (3-fluoro-4′-(2-methyl-4-(trifluoromethyl)-1H-imidazol-1-yl)-3′-(2-methyl-5-(4-(1,1,2,2-tetrafluoroethoxy)phenyl)oxazol-4-yl)-5-(methylsulfonyl)-[1,1′-biphenyl]-4-yl)methanol], the EC50 was determined as 35 nM and the Emax was 41%.
For `Cc1nc(-c2cc(-c3cc(F)c(CO)c(S(C)(=O)=O)c3)ccc2-n2cc(C(F)(F)F)nc2C)c(-c2cccc(OC(F)(F)F)c2)o1` [Example 545, (3-fluoro-4′-(2-methyl-4-(trifluoromethyl)-1H-imidazol-1-yl)-3′-(2-methyl-5-(3-(trifluoromethoxy)phenyl)oxazol-4-yl)-5-(methylsulfonyl)-[1,1′-biphenyl]-4-yl)methanol], in that order: 38 nM and 32%.
Consider `Cc1nc(-c2cc(-c3cc(F)c(CO)c(S(C)(=O)=O)c3)ccc2-n2cc(C(F)(F)F)nc2C)c(-c2cccc(OC(F)(F)C(F)F)c2)o1` [Example 546, (3-fluoro-4′-(2-methyl-4-(trifluoromethyl)-1H-imidazol-1-yl)-3′-(2-methyl-5-(3-(1,1,2,2-tetrafluoroethoxy)phenyl)oxazol-4-yl)-5-(methylsulfonyl)-[1,1′-biphenyl]-4-yl)methanol], for which it took 119 nM to reach a half-maximal effect (EC50) and the Emax was found to be 51%.
For `Cc1nc(-c2cc(-c3cccc(S(C)(=O)=O)c3)ccc2-n2cc(C(F)(F)F)nc2C)c(-c2ccccc2OC(F)F)o1` [Example 547, 5-(2-(difluoromethoxy)phenyl)-2-methyl-4-(4-(2-methyl-4-(trifluoromethyl)-1H-imidazol-1-yl)-3′-(methylsulfonyl)-[1,1′-biphenyl]-3-yl)oxazole], the EC50 was determined as 474 nM and the Emax turned out to be 39%.
The like results for `Cc1nc(-c2cc(-c3cc(F)c(CO)c(S(C)(=O)=O)c3)ccc2-n2cc(C(F)(F)F)nc2C)c(-c2ccccc2OC(F)F)o1` [Example 548, (3′-(5-(2-(difluoromethoxy)phenyl)-2-methyloxazol-4-yl)-3-fluoro-4′-(2-methyl-4-(trifluoromethyl)-1H-imidazol-1-yl)-5-(methylsulfonyl)-[1,1′-biphenyl]-4-yl)methanol] were, in that order, 84 nM and 43%.
As to `Cc1nc(-c2cc(-c3cc(F)c(CO)c(S(C)(=O)=O)c3)ccc2-n2cc(C(F)(F)F)nc2C)c(-c2cccnc2Cl)o1` [Example 549, (3′-(5-(2-chloropyridin-3-yl)-2-methyloxazol-4-yl)-3-fluoro-4′-(2-methyl-4-(trifluoromethyl)-1H-imidazol-1-yl)-5-(methylsulfonyl)-[1,1′-biphenyl]-4-yl)methanol], the EC50 is 483 nM and the Emax is 87%.
Consider `Cc1nc(-c2cc(-c3cccc(S(C)(=O)=O)c3)ccc2-n2cc(C(F)(F)F)nc2C)c(-c2ccc(Cl)nc2)o1` [Example 550, 5-(6-chloropyridin-3-yl)-2-methyl-4-(4-(2-methyl-4-(trifluoromethyl)-1H-imidazol-1-yl)-3′-(methylsulfonyl)-[1,1′-biphenyl]-3-yl)oxazole], for which the EC50 was found to be 625 nM and the Emax worked out at 85%.
The like results for `Cc1nc(-c2cc(-c3cc(F)c(CO)c(S(C)(=O)=O)c3)ccc2-n2cc(C(F)(F)F)nc2C)c(-c2ccc(Cl)nc2)o1` [Example 551, (3′-(5-(6-chloropyridin-3-yl)-2-methyloxazol-4-yl)-3-fluoro-4′-(2-methyl-4-(trifluoromethyl)-1H-imidazol-1-yl)-5-(methylsulfonyl)-[1,1′-biphenyl]-4-yl)methanol] were, in that order, 522 nM and 79%.
Regarding `Cc1nc(-c2cc(-c3cccc(S(C)(=O)=O)c3)ccc2-n2cc(C(F)(F)F)nc2C)c(-c2cccnc2Cl)o1` [Example 552, 5-(2-chloropyridin-3-yl)-2-methyl-4-(4-(2-methyl-4-(trifluoromethyl)-1H-imidazol-1-yl)-3′-(methylsulfonyl)-[1,1′-biphenyl]-3-yl)oxazole], the EC50 was determined as 913 nM and the Emax came to 82%.
For `COCCc1nc(-c2cc(-c3cccc(S(C)(=O)=O)c3)ccc2-n2cc(C(F)(F)F)nc2C)c(-c2ccc(Cl)cc2Cl)o1` [Example 553, 5-(2,4-dichlorophenyl)-2-(2-methoxyethyl)-4-(4-(2-methyl-4-(trifluoromethyl)-1H-imidazol-1-yl)-3′-(methylsulfonyl)-[1,1′-biphenyl]-3-yl)oxazole], in that order: 156 nM and 60%.
Take `Cc1nc(C(F)(F)F)cn1-c1ccc(-c2cc(F)c(CO)c(S(C)(=O)=O)c2)cc1-c1nc(C(C)CO)oc1-c1ccc(OC(F)(F)F)cc1` (stereo not shown) [Example 554, 2-(4-(3′-fluoro-4′-(hydroxymethyl)-4-(2-methyl-4-(trifluoromethyl)-1H-imidazol-1-yl)-5′-(methylsulfonyl)-[1,1′-biphenyl]-3-yl)-5-(4-(trifluoromethoxy)phenyl)oxazol-2-yl)propan-1-ol]: the response was half-maximal at 226 nM (EC50) and the Emax is 31%.
For `CCc1nc(-c2cc(-c3cccc(S(C)(=O)=O)c3)ccc2-n2cc(C(F)(F)F)nc2C)c(-c2ccc(OC(F)(F)F)cc2)o1` [Example 555, 2-ethyl-4-(4-(2-methyl-4-(trifluoromethyl)-1H-imidazol-1-yl)-3′-(methylsulfonyl)-[1,1′-biphenyl]-3-yl)-5-(4-(trifluoromethoxy)phenyl)oxazole], in that order: 18 nM and 96%.
As to `CCc1nc(-c2cc(-c3cc(F)c(CO)c(S(C)(=O)=O)c3)ccc2-n2cc(C(F)(F)F)nc2C)c(-c2ccc(OC(F)(F)F)cc2)o1` [Example 556, (3′-(2-ethyl-5-(4-(trifluoromethoxy)phenyl)oxazol-4-yl)-3-fluoro-4′-(2-methyl-4-(trifluoromethyl)-1H-imidazol-1-yl)-5-(methylsulfonyl)-[1,1′-biphenyl]-4-yl)methanol], the EC50 amounted to 13 nM and the Emax stood at 100%.
In the case of `CCCc1nc(-c2cc(-c3cc(F)c(CO)c(S(C)(=O)=O)c3)ccc2-n2cc(C(F)(F)F)nc2C)c(-c2ccc(OC(F)(F)F)cc2)o1` [Example 557, (3-fluoro-4′-(2-methyl-4-(trifluoromethyl)-1H-imidazol-1-yl)-5-(methylsulfonyl)-3′-(2-propyl-5-(4-(trifluoromethoxy)phenyl)oxazol-4-yl)-[1,1′-biphenyl]-4-yl)methanol], the EC50 stood at 14 nM and the Emax was determined as 82%.
With `CCCc1nc(-c2cc(-c3ccc(CO)c(S(C)(=O)=O)c3)ccc2-n2cc(C(F)(F)F)nc2C)c(-c2ccc(OC(F)(F)F)cc2)o1` [Example 558, (4′-(2-methyl-4-(trifluoromethyl)-1H-imidazol-1-yl)-3-(methylsulfonyl)-3′-(2-propyl-5-(4-(trifluoromethoxy)phenyl)oxazol-4-yl)-[1,1′-biphenyl]-4-yl)methanol], the EC50 came to 10 nM and the Emax was determined as 82%.
Regarding `Cc1nc(C(F)(F)F)cn1-c1ccc(-c2cccc(S(C)(=O)=O)c2)cc1-c1nc(C(C)C)oc1-c1ccc(OC(F)(F)F)cc1` [Example 559, 2-isopropyl-4-(4-(2-methyl-4-(trifluoromethyl)-1H-imidazol-1-yl)-3′-(methylsulfonyl)-[1,1′-biphenyl]-3-yl)-5-(4-(trifluoromethoxy)phenyl)oxazole], it took 34 nM to reach a half-maximal effect (EC50) and the Emax is 76%.
Consider `Cc1nc(C(F)(F)F)cn1-c1ccc(-c2cc(F)c(CO)c(S(C)(=O)=O)c2)cc1-c1nc(C(C)C)oc1-c1ccc(OC(F)(F)F)cc1` [Example 560, (3-fluoro-3′-(2-isopropyl-5-(4-(trifluoromethoxy)phenyl)oxazol-4-yl)-4′-(2-methyl-4-(trifluoromethyl)-1H-imidazol-1-yl)-5-(methylsulfonyl)-[1,1′-biphenyl]-4-yl)methanol], for which the EC50 was found to be 16 nM and the Emax was 75%.
